This is an account of results in article PMC8208785, “Therapeutic efficacy of novel memantine nitrate MN‐08 in animal models of Alzheimer’s disease” (Aging Cell, 2021).

Like-named read-outs stand apart in the source and are kept apart here.

Data set [1] has as its system APP/PS1 mice. The experiment in a line: Western blotting and NeuN staining in hippocampi of APP/PS1 mice (Tau, synapse and apoptosis proteins). It is filed as in vivo. As to conditions: MN‐08 6 mg/kg. On the procedure: APP/PS1 transgenic mice were purchased from Jackson Laboratory and reproduced in the Shenzhen Center for Disease Control and Prevention (Shenzhen, China). Two‐month‐old APP/PS1 mice were divided into four groups: (1) APP/PS1 + Vehicle group; (2) APP/PS1 + MN‐08 (6 mg/kg) group; (3) APP/PS1 + Memantine (Mem, 5 mg/kg) group; (4) APP/PS1 + Donepezil (Done, 1.3 mg/kg, once daily) group; (5) Two‐month‐old C57BL/6J mice as a control group. The APP/PS1 mice were administered drugs twice a day (Done, once daily) by gastric gavage from ages 2 to 8 months for 6 months successively. Control and vehicle groups received equal volumes of saline.
Immunohistochemistry and immunofluorescence staining were carried out as previously described (Zhang et al., 2017). Coronal brain sections were incubated with […] sodium citrate (pH 6.0) and heated for 15 min. After cooling to room temperature, the sections were immersed in 3 % H2O2 for 10 min followed by blocking solution (10 % fetal bovine serum, 1 % bovine serum albumin and 0.1 % Triton X-100) for 1 h. Sections were then incubated with the following appropriate primary antibodies overnight at 4°C: anti-Aβ1-42 antibody (#ab10148, 1:1000, Abcam), anti-Aβ1-16 antibody (#803014, 1:1000, Abcam) and anti-NeuN antibody (#ab177487, 1:400, Abcam). After rinsing 3 times, the sections of immunohistochemistry staining were incubated with biotin-conjugated universal secondary antibody (Gene Tech, Shanghai, China). For immunofluorescence staining, the sections were incubated with appropriate secondary antibodies for 2 h at room temperature. Image J software was used to analyze the fluorescence intensity and cell counting from six slices at similar coronal positions of each animal; this was performed by a viewer blinded to the experimental group.
Western blotting analysis was performed as previously described with minor modifications (Huang, Li, & Nan, 2017). Proteins were extracted from hippocampal tissue and their concentrations determined by the BCA protein assay kit (Fdbio science, Hangzhou, China). The protein (20 μg) was separated on a 12% SDS-PAGE gel and then transferred to PVDF membranes. The membranes were blocked using 5 % nonfat dry milk for 2 h. The protein blots were incubated with the corresponding primary antibodies against p-Akt (#4060, 1:1000, Cell Signaling Technology), Akt (#4685, 1:1000, Cell Signaling Technology), BACE1 (#5606, 1:1000, Cell Signaling Technology), PS1 (#5643, 1:1000, Cell Signaling Technology), p-GSK3β (#5558, 1:1000, Cell Signaling Technology), GSK3β (#12456, 1:1000, Cell Signaling Technology), Bcl-2 (#3498, 1:1000, Cell Signaling Technology), Bax (#5023, 1:1000, Cell Signaling Technology), Cleaved caspase-3 (#9661, 1:1000, Cell Signaling Technology), Caspase-3 (#9662, 1:1000, Cell Signaling Technology), ADAM10 (#14194, 1:1000, Cell Signaling Technology), APP (#ab241592, 1:1000, Abcam), sAPPα (#ab126723, 1:1000, Abcam), NEP (#ab216341, 1:1000, Abcam), Synapsin I (#ab64581, 1:1000, Abcam), Synapsin II (#ab76494, 1:1000, Abcam), NR2A (#ab124913, 1:2000, Abcam), PSD95 (#ab18258, 1:1000, Abcam), Synaptophysin (#ab32127, 1:1000, Abcam), IDE (#ab133561, 1:1000, Abcam), Drebin (#ab178408, 1:1000, Abcam) and Tau-5 (#ab80579, 1:2000, Abcam) overnight at 4°C. After washing 3 times, the membranes were incubated with the respective HRP-conjugated secondary antibody. […] Quantitative analysis of protein bands was conducted by the Carestream system (Carestream Health, Inc, USA).
(Immunoblotting shows a protein as a band on a membrane.)

Data set [2] concerns experimental subarachnoid hemorrhage models. The arrangement: method as in Luo et al., 2019. As to conditions: ref Luo et al., 2019; cited from earlier work.
Data set [3] can be described thus: brain exposure of MN-08 in rats. The data set is classed as in vivo, SD rats. As to conditions: for concentration at 0.5 h / concentration at 1 h / concentration at 24 h: both sexes, Sprague-Dawley, rat, oral. On the procedure: Bio-distribution studies were carried out in healthy adult rats (3 males and 3 females). All rats were administered MN-08 at a single dose of 12 mg/kg by gastric gavage. Brain and plasma were collected at 0.5, 1 and 24 h post dosing. Tissue samples were homogenized and then centrifuged at 12000 rpm for 10 min. The supernatants were injected into the LC-MS/MS system for analysis of MN-08 concentration according to the method previously described (Tian et al., 2016).

Data set [4] in a line: toxicology study in beagle dogs (NOAEL). As to conditions: dog, in vivo. On the procedure:
Forty healthy adult beagle dogs were randomly divided into 4 groups of 5 males (weighing 6.43-8.40 kg) and 5 females (weighing 5.39-6.77 kg) each: (1) Placebo group; (2) MN-08 (4 mg/kg) group; (2) MN-08 (12 mg/kg) group; (3) MN-08 (24 mg/kg) group. MN-08 tablets were administered to beagle dogs by gastric gavage for 4 weeks. The no observed adverse effect level (NOAEL) was examined according to previously described (Brownawell, Carmines, & Montesano, 2011).

As to `CCC12CC3CC(N)(C1)CC(CO[N+](=O)[O-])(C3)C2` (stereo not shown) [MN‐08], in data set [1] (prevention study), the “Tau hyperphosphorylation in the hippocampi” value is given as “consistently suppressed”. Also, the “expression of synapse‐related proteins (SYP, PSD95, SYN I, SYN II, drebrin)” value in data set [1] (prevention study) is “reversal of the depressed expression”. The “neuronal loss in the hippocampus (NeuN)” value in data set [1] (prevention study) is given as “prevented”. The “expression ratio of Bcl‐2/Bax” value in data set [1] (hippocampi) is reported as “upregulating”. In data set [1] (hippocampi), the “expression ratio of cleaved Caspase‐3 to Caspase‐3” value is given as “downregulating”. For the same compound, in data set [2], the cerebral blood flow entry is “increase”. The “concentration in brain tissue relative to plasma” value in data set [3] is “much higher than that in the plasma”. For the same compound, the “blood‐brain barrier penetration” value in data set [3] (12 mg/kg gastric gavage) is “readily penetrates the blood‐brain barrier”. Further, the “mean concentration in brain” value is 5793 ± 1033 ng/g in data set [3] (12 mg/kg gastric gavage, 0.5 h, 12 mg/kg); 10952 ± 3236 ng/g in data set [3] (12 mg/kg gastric gavage, 1 h, 12 mg/kg); 1661 ± 183.4 ng/g in data set [3] (12 mg/kg gastric gavage, 24 h, 12 mg/kg). Besides, the concentration at 0.5 h is 5790 ng/g in data set [3] (brain, 12 mg/kg gastric gavage, 0.5 h, read-out: mean concentration in brain); around 19.9 µM in data set [3] (12 mg/kg, 0.5 h, assuming 1 g brain tissue is 1 ml, read-out: concentration in the brain); 781 ± 99 ng/mL in data set [3] (plasma, 12 mg/kg gastric gavage, 0.5 h, read-out: mean concentration in plasma). The concentration at 1 h is 11000 ng/g in data set [3] (brain, 12 mg/kg gastric gavage, 1 h, read-out: mean concentration in brain); around 37.7 µM in data set [3] (12 mg/kg, 1 h, assuming 1 g brain tissue is 1 ml, read-out: concentration in the brain); 726 ± 141 ng/mL in data set [3] (plasma, 12 mg/kg gastric gavage, 1 h, read-out: mean concentration in plasma). The concentration at 24 h in data set [3] (brain, 12 mg/kg gastric gavage, 24 h, read-out: mean concentration in brain) is 1660 ng/g; in data set [3] (12 mg/kg, 24 h, assuming 1 g brain tissue is 1 ml, read-out: concentration in the brain), around 5.71 µM; in data set [3] (plasma, 12 mg/kg gastric gavage, 24 h, read-out: mean concentration in plasma), 73.4 ± 23.8 ng/mL. Moreover, the NOAEL (in general, the highest tested level that showed no adverse finding) at 4 weeks in data set [4] (both sexes, beagle, po) stood at 24 mg/kg.
For the compound `CC12CC3CC(C)(C1)CC(N)(C3)C2` [memantine, 1‐amino‐3,5‐dimethyladamantane], the NOAEL in data set [4] (beagle dogs, memantine, regimen not stated, read-out: no observed adverse effect level (NOAEL)) was found to be 9 mg/kg.
